We go through 28 compounds from US20200181104A1, “SSAO INHIBITORS AND USES THEREOF” (METACRINE, INC., priority 2018, published 2020).

Counter-ions that a name gives are not always drawn.

The assay deals with T1, Recombinant Human SSAO/VAP-1/AOC3 (Homo sapiens, UniProt Q16853).
T1 construct: purchased R&D systems 3957-AO
T1 sequence (Q16853 1-763): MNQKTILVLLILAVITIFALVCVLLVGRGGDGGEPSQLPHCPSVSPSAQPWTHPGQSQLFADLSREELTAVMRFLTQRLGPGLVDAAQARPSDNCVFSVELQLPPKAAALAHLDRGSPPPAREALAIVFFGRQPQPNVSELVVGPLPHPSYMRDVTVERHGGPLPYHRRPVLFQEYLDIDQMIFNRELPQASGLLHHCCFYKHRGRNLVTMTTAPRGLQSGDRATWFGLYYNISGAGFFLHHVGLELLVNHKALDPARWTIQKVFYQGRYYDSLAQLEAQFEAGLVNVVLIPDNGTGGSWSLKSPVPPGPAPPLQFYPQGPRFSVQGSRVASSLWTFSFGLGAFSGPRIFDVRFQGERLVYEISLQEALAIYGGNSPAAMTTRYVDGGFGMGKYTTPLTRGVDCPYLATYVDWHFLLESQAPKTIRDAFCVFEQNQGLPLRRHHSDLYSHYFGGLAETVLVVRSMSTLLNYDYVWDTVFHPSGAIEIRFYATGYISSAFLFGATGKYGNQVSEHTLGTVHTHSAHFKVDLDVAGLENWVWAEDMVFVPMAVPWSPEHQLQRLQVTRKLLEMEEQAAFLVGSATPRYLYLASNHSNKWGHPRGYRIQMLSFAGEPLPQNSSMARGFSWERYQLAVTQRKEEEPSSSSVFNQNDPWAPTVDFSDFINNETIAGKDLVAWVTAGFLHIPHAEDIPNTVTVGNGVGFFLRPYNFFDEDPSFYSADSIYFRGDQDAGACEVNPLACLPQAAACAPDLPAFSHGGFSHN
Put plainly: Human Semicarbazide-Sensitive Amine Oxidase (SSAO) Assay. The assay is classed as biochemical. The settings on record: recombinant enzyme, 30 minutes preincubation at 37° C., benzylamine substrate, Amplex Ultra Red/HRP fluorescence. Put shortly: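 Recombinant human SSAO/VAP-1 (2.5 μg/ml working stock in 50 mM HEPES) preincubated with compound 30 min at 37 °C over a 6-10 point CRC. Benzylamine substrate starts the reaction. H2O2 read kinetically over 30-120 min via Amplex Ultra Red/HRP fluorescence (ex 544/em 590 nm) to derive IC50.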
For `NC/C(=C\F)COc1ccc(C23CCC(C(=O)N4CC(O)(C(F)(F)F)C4)(CC2)CC3)cc1` [Compound 2.53, (E)-(4-(4-((2-(aminomethyl)-3-fluoroallyl)oxy)phenyl)bicyclo [2.2.2]octan-1-yl)(3-hydroxy-3-(trifluoromethyl)azetidin-1-yl)methanone], the IC50 is no more than 10 nM. As to `NC/C(=C\F)COc1ccc(C23CCC(NC(=O)CCO)(CC2)CC3)cc1` [Compound 7.01, (E)-N-(4-(4-((2-(aminomethyl)-3-fluoroallyl)oxy)phenyl)bicyclo [2.2.2]octan-1-yl)-3-hydroxypropanamide], the IC50 was no more than 10 nM. The result for `COc1cncc(CNC(=O)C23CCC(c4ccc(OC/C(=C/F)CN)cc4)(CC2)CC3)n1` [Compound 2.161, (E)-4-(4-((2-(aminomethyl)-3-fluoroallyl)oxy)phenyl)-N-((6-methoxypyrazin-2-yl)methyl)bicyclo[2.2.2]octane-1-carboxamide] reads no more than 10 nM; that for `COC1CN(C(=O)C23CCC(c4ccc(OC/C(=C/F)CN)cc4)(CC2)CC3)C1` [Compound 2.39, (E)-(4-(4-((2-(aminomethyl)-3-fluoroallyl)oxy)phenyl)bicyclo [2.2.2]octan-1-yl)(3-methoxyazetidin-1-yl)methanone], no more than 10 nM; that for `N#CC1CCCC1NC(=O)C12CCC(c3ccc(OC/C(=C/F)CN)cc3)(CC1)CC2` (stereo not shown) [Compound 2.156, (E)-4-(4-((2-(aminomethyl)-3-fluoroallyl)oxy)phenyl)-N-(2-cyanocyclopentyl)bicyclo[2.2.2] octane-1-carboxamide], no more than 10 nM. For the compound `COc1ccc(CNC(=O)C23CCC(c4ccc(OC/C(=C/F)CN)cc4)(CC2)CC3)cc1` [Compound 2.118, (E)-4-(4-((2-(aminomethyl)-3-fluoroallyl)oxy)phenyl)-N-(4-methoxybenzyl)bicyclo[2.2.2] octane-1-carboxamide], the IC50 is no more than 10 nM. The result for `NC/C(=C\F)COc1ccc(C23CCC(C(=O)NC4(C5CCOCC5)CC4)(CC2)CC3)cc1` [Compound 2.41, (E)-4-(4-((2-(aminomethyl)-3-fluoroallyl)oxy)phenyl)-N-(1-(tetrahydro-2H-pyran-4-yl)cyclopropyl)bicyclo[2.2.2] octane-1-carboxamide] reads no more than 10 nM. For `NC/C(=C\F)COc1ccc(C23CCC(C(=O)NCc4cnccn4)(CC2)CC3)cc1` [Compound 2.129, (E)-4-(4-((2-(aminomethyl)-3-fluoroallyl)oxy)phenyl)-N-(pyrazin-2-ylmethyl)bicyclo[2.2.2]octane-1-carboxamide], the IC50 was no more than 10 nM. Take `NC/C(=C\F)COc1ccc([C@]23CC4CC(C2)[C@@H](C(=O)NC2CCOCC2)C(C4)C3)cc1` (single isomer, unassigned) [Compound 6.02, syn-5-(4-(((E)-2-(Aminomethyl)-3-fluoroallyl)oxy)phenyl)-N-(tetrahydro-2H-pyran-4-yl)adamantane-2-carboxamide Hydrochloride]: the IC50 is no more than 10 nM. The result for `Cc1nnc(C23CCC(c4ccc(OC/C(=C/F)CN)cc4)(CC2)CC3)o1` [Compound 11, (2E)-3-fluoro-2-({4-[4-(5-methyl(1,3,4-oxadiazol-2-yl))bicyclo[2.2.2]octyl]phenoxy}methyl)prop-2-enylamine] reads no more than 10 nM. For the compound `NC/C(=C\F)COc1ccc(C23CCC(C(=O)NCc4ccncn4)(CC2)CC3)cc1` [Compound 2.155, (E)-4-(4-((2-(aminomethyl)-3-fluoroallyl)oxy)phenyl)-N-(pyrimidin-4-ylmethyl)bicyclo[2.2.2]octane-1-carboxamide], the IC50 was no more than 10 nM. The result for `NC/C(=C\F)COc1ccc(C23CCC(C(=O)N4CCC4)(CC2)CC3)cc1` [Compound 2.40, (E)-(4-(4-((2-(aminomethyl)-3-fluoroallyl)oxy)phenyl)bicyclo [2.2.2]octan-1-yl)(azetidin-1-yl)methanone] reads no more than 10 nM; that for `COC1(CCNC(=O)C23CCC(c4ccc(OC/C(=C/F)CN)cc4)(CC2)CC3)CCC1` [Compound 2.147, (E)-4-(4-((2-(aminomethyl)-3-fluoroallyl)oxy)phenyl)-N-(2-(1-methoxycyclobutyl)ethyl) bicyclo[2.2.2]octane-1-carboxamide], no more than 10 nM. As to `NC/C(=C\F)COc1ccc(C23CCC(C(=O)O)(CC2)CC3)cc1` [Compound 2.05, (E)-4-(4-((2-(amino-methyl)-3-fluoroallyl)oxy)phenyl) bicyclo[2.2.2]octane-1-carboxylic acid], the concentration for half-maximal inhibition (IC50) was 10 to 100 nM. For the compound `NC/C(=C\F)COc1ccc(C23CCC(C(N)=O)(CC2)CC3)cc1` [Compound 2.10, (E)-4-(4-((2-(aminomethyl)-3-fluoroallyl)oxy)phenyl) bicyclo[2.2.2]octane-1-carboxamide], the IC50 was no more than 10 nM. On to `NC/C(=C\F)COc1ccc(C23CCC(C(=O)NCC4(O)CCCCC4)(CC2)CC3)cc1` [Compound 2.101, (E)-4-(4-((2-(aminomethyl)-3-fluoroallyl)oxy)phenyl)-N-((1-hydroxycyclohexyl)methyl) bicyclo[2.2.2]octane-1-carboxamide], for which the IC50 is no more than 10 nM. To `COC(=O)C12CCC(c3ccc(OC/C(=C/F)CN)cc3)(CC1)CC2` [Compound 2.04, (E)-methyl 4-(4-((2-(aminomethyl)-3-fluoroallyl)oxy)phenyl)bicyclo [2.2.2]octane-1-carboxylate] belongs no more than 10 nM; to `Cc1cc(C23CCC(C(N)=O)(CC2)CC3)ccc1OC/C(=C/F)CN` [Compound 2.02, (E)-4-(4-((2-(aminomethyl)-3-fluoroallyl)oxy)-3-methylphenyl)bicyclo[2.2.2] octane-1-carboxamide], no more than 10 nM; to `COCC1(CNC(=O)C23CCC(c4ccc(OC/C(=C/F)CN)cc4)(CC2)CC3)CC1` [Compound 2.151, (E)-4-(4-((2-(aminomethyl)-3-fluoroallyl)oxy)phenyl)-N-((1-(methoxymethyl)cyclopropyl)methyl)bicyclo[2.2.2]octane-1-carboxamide], no more than 10 nM. Regarding `NC/C(=C\F)COc1ccc(C23CCC(C(=O)NCC4CCOCC4)(CC2)CC3)cc1` [Compound 2.20], the IC50 was no more than 10 nM. In the case of `NC/C(=C\F)COc1ccc(C23CCC(C(=O)Nc4ccncn4)(CC2)CC3)cc1` [Compound 2.122, (E)-4-(4-((2-(aminomethyl)-3-fluoroallyl)oxy)phenyl)-N-(pyrimidin-4-yl)bicyclo[2.2.2]octane-1-carboxamide], the IC50 was no more than 10 nM. As for `CC1(C)CC(NC(=O)C23CCC(c4ccc(OC/C(=C/F)CN)cc4)(CC2)CC3)CCO1` (stereo not shown) [Compound 2.42, (E)-4-(4-((2-(aminomethyl)-3-fluoroallyl)oxy)phenyl)-N-(2,2-dimethyltetrahydro-2H-pyran-4-yl)bicyclo[2.2.2]octane-1-carboxamide], the IC50 was no more than 10 nM. Turning to `CO[C@H]1C[C@H](CNC(=O)C23CCC(c4ccc(OC/C(=C/F)CN)cc4)(CC2)CC3)C1` [Compound 2.148, 4-(4-(((E)-2-(aminomethyl)-3-fluoroallyl)oxy)phenyl)-N-(((1s,3s)-3-methoxycyclobutyl)methyl) bicyclo[2.2.2]octane-1-carboxamide], the IC50 was no more than 10 nM. To `CC(C)(NC(=O)C12CCC(c3ccc(OC/C(=C/F)CN)cc3)(CC1)CC2)C1CCOCC1` [Compound 2.108, (E)-4-(4-((2-(aminomethyl)-3-fluoroallyl)oxy)phenyl)-N-(2-(tetrahydro-2H-pyran-4-yl)propan-2-yl)bicyclo[2.2.2]octane-1-carboxamide] belongs no more than 10 nM. The result for `NC/C(=C\F)COc1ccc(C23CCC(C(=O)NCC4(CO)CCOCC4)(CC2)CC3)cc1` [Compound 2.63, (E)-4-(4-((2-(aminomethyl)-3-fluoroallyl)oxy)phenyl)-N-((4-(hydroxymethyl)tetrahydro-2H-pyran-4-yl)methyl)bicyclo[2.2.2]octane-1-carboxamide] reads no more than 10 nM; that for `CNC(=O)C12CCCC(c3ccc(OC/C(=C/F)CN)cc3)(CC1)CC2` [Compound 10, (E)-5-(4-((2-(Aminomethyl)-3-fluoroallyl)oxy)phenyl)-N-methylbicyclo[3.2.2]nonane-1-carboxamide Hydrochloride], no more than 10 nM.

For the compound `NC/C(=C\F)COc1ccc(C23CCC(C(=O)N4CCOCC4)(CC2)CC3)cc1` [Compound 2.07], the IC50 is no more than 10 nM. `CO[C@H]1CCN(C(=O)C23CCC(c4ccc(OC/C(=C/F)CN)cc4)(CC2)CC3)C1` [Compound 2.121, (S,E)-(4-(4-((2-(aminomethyl)-3-fluoroallyl)oxy)phenyl)bicyclo [2.2.2]octan-1-yl)(3-methoxypyrrolidin-1-yl)methanone]: the IC50 was no more than 10 nM.

As a reminder, the IC50 is the concentration that inhibits the measured activity by half.
